Assay results reported in US20030069194A1, “Inhibition of viral replication by targeting RNA-DNA complexes” (priority 2001, published 2003).
Where a name gives a salt, the structure may show the parent alone.

Tests used:
[1] = system: 18C-18D duplex (RNase H substrate of HIV-1 RT); assay: RT-induced RNase H cleavage of the 18C-18D duplex (gel assay); assay type: biochemical; settings: for hierarchy of inhibition of RT-induced cleavage: 18C-18D duplex, aminoglycosides 2.0 mM, FIG. 2b, 2c
Excerpt: The second model oligonucleotide was a 18mer chimeric duplex (18C-18D). 18C-18D mimics a RNase H substrate during plus-strand strong-stop synthesis (FIG. 2a), which occurs following minus-strand DNA synthesis. Fedoroff, O. Y., et. al., B. R. Structural variation among retroviral primer-DNA junctions: Solution structure of the HIV-1 (−)-strand Okazaki fragment r(gcca)d(CTGC)-d(GCAGTGGC), Biochemistry 35,11070-11080 (1996). For the 18C-18D duplex, RT cleaves the RNA portion of the chimeric strand (18C) opposite the DNA strand (18D) at only a single site (FIGS. 2a, b), in marked contrast to the three cleavage sites observed in the 18C-18Rduplex. This unique cleavage site lies between base positions +1 and +2 (counting from the RNA-DNA junction in the 5′ direction on the cleaved chimeric strand). Furfine, E. S. & Reardon, J. E., Human immunodeficiency virus reverse transcriptase ribonuclease H: Specificity of tRNA(Lys3)-primer excision, Biochemistry 30, 7041-7046 (1991); Smith, J. S. & Roth, M. J. Specificity of human immunodeficiency virus-1 reverse transcriptase-associated ribonuclease H in removal of the minus-strand primer tRNA(Lys3), J. Biol. Chem. 267, 15071-15079 (1992). […] As noted above for the 18C-18R duplex, this hierarchy of cleavage inhibition correlates with the relative binding affinities of the three ligands for the 18C-18D duplex.
Recombinant HIV-1 RT p66 was isolated from Escherichia coli JM 109. Pandey, V. N. et al, Role of methionine 184 of human immunodeficiency virus type-1 reverse transcriptase in the polymerase function and fidelity of DNA synthesis, Biochemistry 35, 2168-2179 (1996). The 18C and 18R oligonucleotides were purchased from Dharmacon Research, Inc. (Lafayette, Colo.). The 18D oligonucleotide was obtained from Integrated DNA Technologies, Inc. (Coralville, Iowa). Neomycin trisulfate trihydrate, the free base of tobramycin, paromomycin sulfate, and kanamycin B sulfate were obtained from Fluka, while kanamycin A monosulfate and ribostamycin sulfate dihydrate were obtained from Sigma.
The RNase H activity of RT was assayed in a 10 μl reaction mixture containing 110 mM PIPES (pH 6.0) and 5 mM MgCl2. Ten pmol of either 18C or 18R were ^32P-labeled at the 5′ end using T4 polynucleotide kinase. For the cleavage experiments, different aminoglycosides were mixed with 0.5 μM of target duplex. A small amount of RT, 0.1 μg, was then added to initiate the cleavage reaction. After incubation at 37° C. for 30 min, the reaction was stopped by addition of 3 M urea containing a mixture of bromophenol blue and xylene cyanol. Denaturation of the 18C-18R duplex required the addition of 5 M urea as well as heating at 95° C. for 5 min prior to gel loading. The cleavage products were resolved in a 10% polyacrylamide gel containing 8 M urea. The gels were subsequently analyzed using a phosphoimager (Molecular Dynamics, Inc.).
To determine the nature of the aminoglycoside-induced inhibition of RT-catalyzed RNase H cleavage, the impact of RT concentration on neomycin-induced inhibition was examined. […] In the presence of 1 mM neomycin, increasing the concentrations of RT overcomes the RNase H inhibitory effect of the drug.

[2] = system: 18C-18R duplex; assay: Isothermal titration calorimetry (ITC), 18C-18R duplex; assay type: binding, HIV-1; settings: for ΔHb (binding enthalpy): 18C-18R duplex, ITC at 25° C.
Description: (§1) Isothermal calorimetric measurements were performed at 25° C. on a MicroCal VP-ITC (MicroCal, Inc., Northampton, Mass.). In a typical experiment, 5 μl aliquots of 500 μM aminoglycoside were injected from a 250 μl rotating (430 RPM) syringe into an isothermal sample chamber containing 1.31 mL of either a 18C-18R solution that was 10 μM in duplex or a 18C-18D solution that was 15 μM in duplex. Each experiment of this type was accompanied by the corresponding control experiment in which 5 μL aliquots of 500 μM drug were injected into a solution of buffer alone. The duration of each injection was 5 seconds and the delay between injections was 240 seconds. The initial delay prior to the first injection was 60 seconds. Each injection generated a heat burst curve (μcal/sec vs. sec). The area under each curve was determined by integration [using the Origin version 5.0 software (MicroCal, Inc., Northampton, Mass.)] to obtain a measure of the heat associated with that injection. The heat associated with each drug-buffer injection was subtracted from the corresponding heat associated with each drug-duplex injection to yield the heat of drug binding for that injection. The calorimeter was calibrated both electronically and chemically. Pilch, D. S., Kirolos, M. A., Liu, X., Plum, G. E. & Breslauer, K. J. Berenil [1,3-bis-(4′-amidinophenyl)triazene] binding to DNA duplexes and to a RNA duplex: Evidence for both intercalative and minor groove binding properties, Biochemistry 34, 9962-9976 (1995). All duplex solutions were preheated for 5 minutes at 85° C. and then cooled to room temperature prior to their use in the ITC experiments. The buffer solutions for the ITC experiments contained 10 mM PIPES (pH 6.0) and 5 mM MgCl2.
(§2) Table 1 summarizes the apparent association constants at 25° C. that were calculated using equations (1)-(3) for neomycin and paromomycin binding to the 18C-18R and 18C-18D duplexes. The drug binding enthalpies (ΔHb) required for extrapolation of the binding constants at Tm to common reference temperature of 25° C. using equation (3) were determined using isothermal titration calorinietry (ITC). […] Each of the heat burst curves in FIG. 4 corresponds to a single drug injection, with the seven injections resulting in a final drug to duplex ratio (rdup) of either 0.83 (when 18C-18D served as the target duplex) or 1.25 (when 18C-18R served as the target duplex). The areas under these heat burst curves were determined by integration to yield the associated injection heats. For each titration, the seven injection heats were similar in magnitude, an observation consistent with all of the injected drug being bound by the host duplex. These injection heats were corrected by subtraction of the corresponding dilution heats derived from the injection of identical amounts of drug into buffer alone. The resulting corrected injection heats then were divided by the total concentration of injected drug and averaged to yield the ΔHb values listed in Table 1.

[3] = system: 18C-18D duplex; assay: Isothermal titration calorimetry (ITC), 18C-18D duplex; assay type: binding, HIV-1; settings: for ΔHb (binding enthalpy): 18C-18D duplex, ITC at 25° C.
Description: as §1, §2

[4] = listed as Neomycin, trisulfate trihydrate

Molecule: NC[C@@H]1O[C@H](O[C@H]2[C@@H](O)[C@H](O[C@@H]3[C@@H](O)[C@H](N)C[C@H](N)[C@H]3O[C@H]3O[C@H](CO)[C@@H](O)[C@H](O)[C@H]3N)O[C@@H]2CO)[C@H](N)[C@@H](O)[C@@H]1O [paromomycin, paromomycin sulfate]
- hierarchy of inhibition of RT-induced cleavage [1]: neomycin>paromomycin>ribostamycin
- ΔHb (binding enthalpy) [2]: -4.5 kcal/mol
- ΔHb (binding enthalpy) ([2]; listed as Paromomycin): -4.5 ± 0.1 kcal/mol
- ΔHb (binding enthalpy) [3]: -3.6 kcal/mol
- ΔHb (binding enthalpy) ([3]; listed as Paromomycin): -3.6 ± 0.1 kcal/mol

Molecule: Neomycin trisulfate trihydrate
- nature of inhibition of RNase H activity of RT ([1]; 1 mM neomycin, increasing RT 0.1-2.7 μg, FIG. 2d): competitive
- hierarchy of inhibition of RT-induced cleavage [1]: neomycin>paromomycin>ribostamycin
- neomycin required for 50% inhibition of RT-induced cleavage, 18C-18D relative to 18C-18R ([1]; comparison of FIGS. 1c and 2c): approximately 420 times
- ΔHb (binding enthalpy) [2, 4]: -8.8 ± 0.1 kcal/mol
- ΔHb (binding enthalpy) ([2]; trisulfate trihydrate): -8.8 kcal/mol
- binding stoichiometry ([2]; ITC, 18C-18R): approximately five
- ΔHb (binding enthalpy) [3, 4]: -6.1 ± 0.1 kcal/mol
- ΔHb (binding enthalpy) ([3]; trisulfate trihydrate): -6.1 kcal/mol
- binding stoichiometry ([3]; ITC, 18C-18D): three
